According to patent US20050233058A1, “Aminoacid derivatives of dicarboxylic acids as flavor ingredients” (priority 2004, published 2005):

Assay: Organoleptic description of the compounds (umami, mouthfeel)
Conditions: for Additional feeling imparted: in a meet type application

O=C(O)CCC(=O)N[C@@H](CCC(=O)O)C(=O)O [succinoyl-Glu, N-(3-carboxypropionyl)-glutamic acid]
Taste / organoleptic character of the compound: slightly acidic note together with a well perceivable umami taste or character having a broth connotation

CC(C)C[C@H](NC(=O)CCCC(=O)O)C(=O)O [Glutaryl-Leu, N-(4-carboxybutanoyl)-L-leucine]
Additional feeling imparted: slightly more fatty feeling

O=C(O)/C=C\C(=O)N[C@@H](CCC(=O)O)C(=O)O [Maleyl-Glu, (Z)-N-(3-carboxy-2-propenoyl)-L-glutamic acid]
Additional feeling imparted: slightly more juicy feeling

O=C(O)CCCC(=O)N[C@@H](CCC(=O)O)C(=O)O [glutaryl-Glu, N-(4-carboxybutanoyl)L-glutamic acid]
Additional feeling imparted: slightly more fatty feeling

CC(C)C[C@H](NC(=O)CCC(=O)O)C(=O)O [succinoyl-Leu, N-(3-carboxypropionyl)leucine]
Taste / organoleptic character of the compound: slightly more acidic and slightly less umami taste than the one of succinoyl-Glu
